Laboratory results reported in patent publication US7119256B2, “Gene encoding acetolactate synthase” (priority 2000, dated 2006).

Legend:
W548L mutant ALS = biological target: T1, W548L mutant ALS (Oryza sativa subsp. japonica, UniProt Q6K2E8, W548L); experiment: Herbicide sensitivity of crude ALS with W548L mutation only, 1 mM valine; type: biochemical, rice; conditions: crude enzyme
T1 construct: one type of cDNA containing a full length ALS gene could be obtained from a cDNA library derived from the wild type; made in house; host or cells: E. coli JM 109, pGEX-2T backbone (pGEX-2T-wALS); crude enzyme solution
Procedure: A plasmid having W548L mutant ALS gene or a plasmid having S627I mutant ALS gene was transformed into E. coli strain JM 109. The colonies obtained from transformation were subjected to liquid culture, expression of GST induction protein was induced in the same manner as in Examples 4 and 5, a crude enzyme solution was prepared, and then herbicide sensitivity of ALS was examined in the presence of 1 mM valine.

[1] = test system: callus of a rice plant (Nippon-bare) transformed with a mutant ALS gene; experiment: Bispyribac-sodium sensitivity of calli of rice transformed with the mutant ALS gene; type: cell-based
Procedure: Simultaneously with the above described potting, part of the calli which had not redifferentiated (9 calli) (FIG. 35) was sub-cultured on solid media for production of a bispyribac-sodium resistant callus used in Example 1. The solid media contained 10 μM bispyribac-sodium. Thus, 6 out of 9 calli grew normally. […] Accordingly, 6 calli grown on a solid medium containing 10 μM bispyribac-sodium were all shown to have strong bispyribac-sodium resistance.

[2] = test system: callus of the wild type rice plant (Nippon-bare); experiment: Bispyribac-sodium sensitivity of callus of wild type rice plant; type: cell-based
[3] = test system: rice plant transformed with the mutant ALS gene; experiment: Foliar spray of bispyribac-sodium on transformant rice plants, growth survey; type: in vivo, rice (Nippon-bare); conditions: 1 kg of a.i./ha with 0.2% surfactant K, sprayed over leaves and stems; about 40 days after spraying
From the text: Of 80 hygromycin resistant transformant rice plants potted, those which grew normally at the leaf stage 5 were 27 plants to which the mutant ALS gene had been introduced and 46 plants to which the wild type ALS gene had been introduced. Plants containing the wild type ALS gene introduced therein tended to grow healthier than those containing the mutant ALS gene therein. At this time, 4 plants containing the mutant ALS gene introduced therein and 5 plants containing the wild type ALS gene introduced therein were appropriately selected, and 1 kg of a.i./ha bispyribac-sodium salt supplemented with 0.2% surfactant K was sprayed over the leaves and stems. In FIG. 40, the plant length A was about 90 cm.

mutant ALS protein = mutant ALS protein (Oryza sativa subsp. japonica, UniProt Q6K2E8, S627I/W548L); experiment: Herbicide sensitivity of crude mutant ALS (W548L and S627I) expressed in E. coli, in presence of valine; type: biochemical, rice; design: the cDNA containing a full length mutant ALS gene could be obtained; made in house; host or cells: E. coli JM 105, pGEX-4T-3; crude enzyme solution; conditions: crude enzyme from E. coli, valine added
Procedure: (§1) Preparation and purification of ALS from E. coli were performed by the following method. First, a pellet of the transformant E. coli stored at −80° C. was suspended in ALS extraction buffer (potassium phosphate buffer (pH 7.5) containing 30% glycerol and 0.5 mM MgCl2). Specifically, 2.5 ml of the buffer was added to the pellet obtained from 50 ml of the culture solution. The suspension was subjected to ultrasonication (Heat Systems-Ultrasonics, Sonicator W-225R, micro chip, output control 8, interval of approximately 1 sec, twice (40 sec each)), and subjected to centrifugation at 15000×g, 4° C. for 20 min, thereby obtaining the supernatant as a crude enzyme solution.
(§2) Herbicide sensitivity of mutant ALS protein was examined using the crude enzyme solution obtained in Example 4. Herbicide sensitivity test was performed in the manner same as that in Example 2. In the herbicide sensitivity test, three herbicides, bispyribac-sodium, pyrithiobac-sodium, and pyriminobac were used as PC herbicides; four drugs, chlorsulfuron, bensulfuron-methyl, pyrazosulfuron-ethyl and imazosulfuron were used as sulfonylurea herbicides; and two drugs, imazaquin, and imazapyr were used as imidazolinon herbicides.
Solutions containing these herbicides at certain concentrations (bispyribac-sodium and pyrithiobac-sodium were aqueous solutions, others were acetone solutions) were added to reaction solutions before addition of the mutant ALS protein. The final concentration of acetone was 1%. In addition, since an ALS protein from the rice cDNA expressed within E. coli is insusceptible to valine (Kil et al., J. Biochem. Mol. Biol. 31 287–295, 1998), a herbicide sensitivity test was performed under conditions in which ALS activity derived from E. coli was inhibited with valine.

wild type ALS protein = biological target: T2, wild type ALS protein (Oryza sativa subsp. japonica, UniProt Q6K2E8); experiment: Herbicide sensitivity of crude wild type ALS expressed in E. coli, in presence of valine; type: biochemical, rice; design: one type of cDNA containing a full length ALS gene could be obtained from a cDNA library derived from the wild type; made in house; host or cells: E. coli JM 105, pGEX-2T; crude enzyme solution (sonicate supernatant); conditions: crude enzyme from E. coli, valine added
T2 sequence (Q6K2E8 44-644): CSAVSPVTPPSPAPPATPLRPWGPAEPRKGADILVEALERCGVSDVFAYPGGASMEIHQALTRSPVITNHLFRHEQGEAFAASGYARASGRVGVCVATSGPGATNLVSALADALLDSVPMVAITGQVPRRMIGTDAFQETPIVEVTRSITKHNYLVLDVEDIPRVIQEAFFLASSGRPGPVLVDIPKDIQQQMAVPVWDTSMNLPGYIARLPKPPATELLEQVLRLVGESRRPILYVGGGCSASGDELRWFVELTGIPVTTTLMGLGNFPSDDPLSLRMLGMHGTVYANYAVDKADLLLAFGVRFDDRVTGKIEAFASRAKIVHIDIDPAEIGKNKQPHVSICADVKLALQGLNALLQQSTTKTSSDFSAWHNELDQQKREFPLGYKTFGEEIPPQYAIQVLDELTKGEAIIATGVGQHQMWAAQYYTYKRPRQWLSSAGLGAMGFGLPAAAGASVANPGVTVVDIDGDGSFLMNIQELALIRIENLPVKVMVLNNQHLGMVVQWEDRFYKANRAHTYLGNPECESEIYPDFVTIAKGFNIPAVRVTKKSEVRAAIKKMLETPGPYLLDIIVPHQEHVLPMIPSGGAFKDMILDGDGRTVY
Procedure: as §1
as §2, with “herbicides. […]” for “herbicides.”

mutant ALS protein, sequence (Q6K2E8 44-644 W548L/S627I): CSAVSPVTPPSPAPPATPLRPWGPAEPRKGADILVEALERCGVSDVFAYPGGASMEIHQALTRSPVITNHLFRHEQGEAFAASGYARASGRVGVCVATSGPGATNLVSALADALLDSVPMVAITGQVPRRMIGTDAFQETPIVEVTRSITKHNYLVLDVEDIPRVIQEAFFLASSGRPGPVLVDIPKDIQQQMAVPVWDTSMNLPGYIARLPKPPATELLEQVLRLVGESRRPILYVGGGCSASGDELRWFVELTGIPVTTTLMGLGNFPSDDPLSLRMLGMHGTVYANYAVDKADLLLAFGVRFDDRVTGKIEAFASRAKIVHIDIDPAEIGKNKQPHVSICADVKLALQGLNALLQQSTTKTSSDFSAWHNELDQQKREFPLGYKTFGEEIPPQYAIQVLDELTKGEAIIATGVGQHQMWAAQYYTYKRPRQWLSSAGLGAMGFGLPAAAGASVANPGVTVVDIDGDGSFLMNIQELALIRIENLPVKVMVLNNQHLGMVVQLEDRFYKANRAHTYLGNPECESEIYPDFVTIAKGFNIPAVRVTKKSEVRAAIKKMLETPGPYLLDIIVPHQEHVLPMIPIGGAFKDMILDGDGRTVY
T1 sequence (Q6K2E8 44-644 W548L): as the sequence (Q6K2E8 44-644 W548L/S627I) above, with I584S counted along it

Row | Compound | resistance imparted by W548L mutation alone (W548L mutant ALS) | calli that grew normally on solid medium ([1]; 10 μM bispyribac-sodium) | drug sensitivity of transformant callus in liquid culture ([1]; one of the 6 normally growing calli) | drug sensitivity of wild type callus [2] | growth of plant containing the mutant ALS gene after spraying [3] | mutant ALS activity in the presence of herbicide (mutant ALS protein) | resistance of the mutant ALS protein to herbicide compared to wild type ALS protein (mutant ALS protein) | wild type ALS activity in the presence of herbicide (wild type ALS protein)
1 | COc1cc(OC)nc(Oc2cccc(Oc3nc(OC)cc(OC)n3)c2C(=O)[O-])n1.[Na+] [Bispyribac-sodium, bispyribac-sodium] | imparted resistance | 6 out of 9 | showed bispyribac-sodium resistance | showed bispyribac-sodium sensitivity | grew almost normally | not inhibited at all | best resistance | inhibited
2 | COc1nc(C)nc(NC(=O)NS(=O)(=O)c2ccccc2Cl)n1 [Chlorsulfuron, chlorsulfuron] | imparted resistance | – | – | – | – | – | moderate | –
